# Experimental data as given in article PMC10247784, “Physiological activation of human and mouse bitter taste receptors by bile acids” (Communications Biology, 2023).
# Molecular target: T1, mouse Tas2r105 (Mus musculus, UniProt Q9JKT4)
# T1 construct: expressed in transfected cells; host or cells: HEK293T-Gα16gust44
# T1 sequence (Q9JKT4 1-300): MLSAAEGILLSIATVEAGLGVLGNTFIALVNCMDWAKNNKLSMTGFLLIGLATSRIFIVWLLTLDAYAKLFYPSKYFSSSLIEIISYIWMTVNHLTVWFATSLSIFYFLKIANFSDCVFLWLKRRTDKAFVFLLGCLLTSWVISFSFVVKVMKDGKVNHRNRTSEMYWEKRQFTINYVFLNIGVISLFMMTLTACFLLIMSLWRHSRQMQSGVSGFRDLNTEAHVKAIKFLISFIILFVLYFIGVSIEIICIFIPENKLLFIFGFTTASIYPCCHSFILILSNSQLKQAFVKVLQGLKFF
# Experiment: Calcium imaging assay (FLIPR), HEK293T-Gα16gust44 cells transfected with mouse Tas2r105
# Type: cell-based
# Conditions: for Δ F/F: Tas2r105
# Protocol: This set of bile acids was chosen because of their commercial availability in high purities, their diversity within the class of bile acids and their previous detection and quantitation in human blood. Stock solutions were prepared in DMSO.
# As basal growth medium for the HEK293T-Gα16gust44 cell line[17],[59] served Dulbecco’s modified eagle medium (DMEM) (Thermo Fisher Scientific, Darmstadt, Germany) supplemented with 10 % fetal bovine serum (Sigma-Aldrich, Steinheim, Germany), 2 mM L-glutamine (Sigma-Aldrich, Steinheim, Germany), 100 units/ml penicillin (Sigma Aldrich, Steinheim, Germany) and 100 µg/ml streptomycin (Sigma Aldrich, Steinheim, Germany). Growth conditions were 37 °C, 5 % CO2 and saturated air-humidity[60].
# HEK293T-Gα16gust44 cells were seeded on poly-D-lysine (10 µg/ml) coated 96-well plates to reach a confluence of 40-60 % the next day. For transient transfection 150 ng of plasmid DNA containing the receptor of interest and 0.3 µl lipofectamine 2000 (Thermo Fisher Scientific, Darmstadt, Germany) per well were used and transfection took place according to the manual of lipofectamine 2000. […] The empty vector DNA (mock) was transfected as negative control[14],[41].
# Cells were loaded using the calcium-sensitive fluorescent dye Fluo-4-AM (Abcam, Cambridge, Great Britain) in the presence of 2.5 mM probenecid (Sigma-Aldrich, Steinheim, Germany) the day after transfection[13],[41]. 1 h after loading, cells were washed with C1 buffer using a BioTek Cell Washer, incubated in the dark for half an hour and washed again. For automated agonist application and measurement of fluorescence changes, a FLIPR^TETRA device (Molecular Devices, San José, United States) was used. Viability of cells was tested by application of 100 nM Somatostatin 14 (Bachem, Bubendorf, Switzerland)[42].
# Measured data were negative control corrected by subtracting the signal of the mock-transfected cells and exported to Microsoft Excel using the FLIPR software ScreenWorks 4.2. In Microsoft Excel software, standardization of maximum fluorescence intensities to the basal fluorescence and normalization to the buffer-only control was done to calculate the relative fluorescence changes (ΔF/F).
# Initial screening experiments performed in duplicate wells were confirmed by at least one replication and representative traces were selected for display. All dose-response relationships were determined by three independent experiments (biological replicates) performed in duplicates (technical replicates). Threshold concentrations, defined as lowest substance concentrations leading to statistically significant elevated fluorescence changes in receptor-transfected cells compared with empty vector-transfected cells, were determined using SigmaPlot with Student’s t-test to evaluate statistical significance (p < 0.01).
compound,measurement,setting,value
"C[C@H](CCC(=O)NCC(=O)O)[C@H]1CC[C@H]2[C@@H]3[C@H](O)C[C@@H]4C[C@H](O)CC[C@]4(C)[C@H]3C[C@H](O)[C@]12C [Glycocholic Acid, glycocholic acid]",Δ F/F,"conc. 0,01 mM",0.004381
same,Δ F/F,"conc. 0,1 mM",0.01642
same,Δ F/F,"conc. 0,03 mM",0.01245
same,Δ F/F,"conc. 0,3 mM",0.0274
same,Δ F/F,"conc. 0,001 mM",0.003279
same,Δ F/F,conc. 1 mM,0.07136
same,Δ F/F,"conc. 0,003 mM",-0.003104
same,RLU,Time 0 s,0 RLU
same,RLU,Time 2 s,-27.0595 RLU
same,RLU,Time 4 s,-18.6603 RLU
same,RLU,Time 6 s,-18.2123 RLU
same,RLU,Time 8 s,-47.8563 RLU
same,RLU,Time 12 s,-34.2819 RLU
same,RLU,Time 14 s,-34.7557 RLU
same,RLU,Time 16 s,-23.6188 RLU
same,RLU,Time 18 s,-16.5747 RLU
same,RLU,Time 18.781 s,-3.899 RLU
same,RLU,Time 20.781 s,-20.1413 RLU
same,RLU,Time 22.781 s,-4.143 RLU
same,RLU,Time 24.781 s,15.6549 RLU
same,RLU,Time 26.781 s,13.7683 RLU
same,RLU,Time 28.781 s,17.1414 RLU
same,RLU,Time 30.781 s,33.1924 RLU
same,RLU,Time 32.781 s,40.0682 RLU
same,RLU,Time 34.781 s,38.6999 RLU
same,RLU,Time 36.781 s,117.771 RLU
same,RLU,Time 38.781 s,121.11 RLU
same,RLU,Time 40.781 s,113.511 RLU
same,RLU,Time 42.781 s,141.314 RLU
same,RLU,Time 44.781 s,160.969 RLU
same,RLU,Time 46.781 s,200.571 RLU
same,RLU,Time 48.781 s,228.76 RLU
same,RLU,Time 50.781 s,238.054 RLU
same,RLU,Time 52.781 s,279.774 RLU
same,RLU,Time 54.781 s,314.942 RLU
same,RLU,Time 56.781 s,299.791 RLU
same,RLU,Time 58.781 s,350.668 RLU
same,RLU,Time 60.781 s,363.761 RLU
same,RLU,Time 62.781 s,387.64 RLU
same,RLU,Time 64.781 s,388.62 RLU
same,RLU,Time 66.781 s,424.095 RLU
same,RLU,Time 68.781 s,419.549 RLU
same,RLU,Time 70.781 s,443.973 RLU
same,RLU,Time 72.781 s,413.221 RLU
same,RLU,Time 74.781 s,419.192 RLU
same,RLU,Time 76.781 s,460.126 RLU
same,RLU,Time 78.781 s,478.685 RLU
same,RLU,Time 80.781 s,487.49 RLU
same,RLU,Time 82.781 s,529.97 RLU
same,RLU,Time 84.781 s,535.792 RLU
same,RLU,Time 86.781 s,528.828 RLU
same,RLU,Time 88.781 s,565.311 RLU
same,RLU,Time 90.781 s,546.96 RLU
same,RLU,Time 92.781 s,541.782 RLU
same,RLU,Time 94.781 s,524.334 RLU
same,RLU,Time 96.781 s,507.8 RLU
same,RLU,Time 98.781 s,505.738 RLU
same,RLU,Time 100.781 s,510.912 RLU
same,RLU,Time 102.781 s,470.239 RLU
same,RLU,Time 104.781 s,497.869 RLU
same,RLU,Time 106.781 s,500.977 RLU
same,RLU,Time 108.781 s,492.243 RLU
same,RLU,Time 110.781 s,525.903 RLU
same,RLU,Time 112.781 s,501.6 RLU
same,RLU,Time 114.781 s,517.173 RLU
same,RLU,Time 116.781 s,514.443 RLU
same,RLU,Time 118.781 s,515.53 RLU
same,RLU,Time 120.781 s,497.17 RLU
same,RLU,Time 122.781 s,525.829 RLU
same,RLU,Time 124.781 s,530.193 RLU
same,RLU,Time 126.781 s,525.829 RLU
same,RLU,Time 128.781 s,520.174 RLU
same,RLU,Time 130.781 s,519.565 RLU
same,RLU,Time 132.781 s,551.214 RLU
same,RLU,Time 134.781 s,551.693 RLU
same,RLU,Time 136.781 s,519.874 RLU
same,RLU,Time 137.578 s,524.174 RLU
same,RLU,Time 143.578 s,517.004 RLU
same,RLU,Time 149.578 s,507.474 RLU
same,RLU,Time 155.578 s,522.299 RLU
same,RLU,Time 161.578 s,476.762 RLU
same,RLU,Time 167.578 s,499.828 RLU
same,RLU,Time 173.578 s,455.735 RLU
same,RLU,Time 179.578 s,459.26 RLU
same,RLU,Time 185.578 s,429.678 RLU
same,RLU,Time 191.578 s,409.042 RLU
same,RLU,Time 197.578 s,394.775 RLU
same,RLU,Time 203.578 s,421.467 RLU
same,RLU,Time 209.578 s,379.61 RLU
same,RLU,Time 215.578 s,405.275 RLU
same,RLU,Time 221.578 s,372.014 RLU
same,RLU,Time 227.578 s,339.525 RLU
same,RLU,Time 233.578 s,348.807 RLU
same,RLU,Time 239.578 s,313.214 RLU
same,RLU,Time 245.578 s,300.083 RLU
same,RLU,Time 293.578 s,317.696 RLU
same,RLU,Time 299.578 s,309.428 RLU
same,RLU,Time 305.578 s,321.267 RLU
same,RLU,Time 311.578 s,329.776 RLU
same,RLU,Time 317.578 s,375.676 RLU
same,RLU,Time 323.578 s,369.197 RLU
same,RLU,Time 329.578 s,335.975 RLU
same,RLU,Time 335.578 s,363.52 RLU
same,RLU,Time 341.578 s,327.284 RLU
same,RLU,Time 347.578 s,338.669 RLU
same,RLU,Time 353.578 s,324.825 RLU
same,RLU,Time 359.578 s,287.782 RLU
same,Activation threshold concentration Tas2r105,p < 0.01 vs empty vector,300 µM
